{"source": "patent US8134015B2", "about": "“Compound inhibiting in vivo phosphorous transport and medicine containing the same” (Kyowa Hakko Kirin Co., Ltd., priority 2003, dated 2012)", "note": "Structures can show the parent of a compound that is named as a salt."}
{"biological_target": "T1, rat NaPi-2b (Rattus norvegicus, UniProt Q9JJ09)", "T1 construct": "expressed in transfected cells; host or cells: Xenopus oocytes injected with cRNA", "T1 sequence (Q9JJ09 1-695)": "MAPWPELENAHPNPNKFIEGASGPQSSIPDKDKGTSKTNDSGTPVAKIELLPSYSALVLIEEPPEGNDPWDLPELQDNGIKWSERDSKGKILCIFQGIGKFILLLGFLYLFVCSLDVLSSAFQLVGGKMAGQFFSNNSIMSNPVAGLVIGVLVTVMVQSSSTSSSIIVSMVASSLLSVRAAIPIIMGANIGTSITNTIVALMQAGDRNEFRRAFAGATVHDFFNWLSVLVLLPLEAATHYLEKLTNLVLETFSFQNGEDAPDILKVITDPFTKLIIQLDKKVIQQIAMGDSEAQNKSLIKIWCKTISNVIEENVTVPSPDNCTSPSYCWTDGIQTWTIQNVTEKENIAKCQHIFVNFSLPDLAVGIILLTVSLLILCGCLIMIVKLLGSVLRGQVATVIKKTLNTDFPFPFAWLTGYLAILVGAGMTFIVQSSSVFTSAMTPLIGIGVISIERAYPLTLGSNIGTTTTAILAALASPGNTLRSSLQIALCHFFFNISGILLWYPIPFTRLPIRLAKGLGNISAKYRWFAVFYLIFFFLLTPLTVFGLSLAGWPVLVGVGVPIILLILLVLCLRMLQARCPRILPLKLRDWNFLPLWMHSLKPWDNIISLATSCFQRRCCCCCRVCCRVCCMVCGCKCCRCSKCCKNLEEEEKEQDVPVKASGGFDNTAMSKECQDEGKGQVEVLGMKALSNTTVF", "assay": "Sodium-dependent phosphate uptake of Xenopus oocytes which expressed NaPi-2b (32P)", "format": "cell-based", "settings": "Xenopus oocytes expressing rat NaPi-2b, 32P radioactive phosphorus; read-out: IC50 (phosphate uptake inhibitory activity)", "procedure,_shortened": "(§1)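 Rat NaPi-2b cloned from small-intestine cDNA; cRNA injected into Xenopus oocytes, expression for 2 days. Phosphate uptake inhibition measured with 32P; percent inhibition at 300 μM and 100 μM read from the same inhibition curve.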", "units": {"IC50": "µM"}}
{"molecule": "CCOCCN(CCOCC)Cc1ccc(C(=O)Nc2ccc(Br)cc2C(=O)N/N=C/c2cccc(F)c2)cc1", "note": "[Compound 737, 4-{[Bis-(2-ethoxy-ethyl)-amino]-methyl}-N-[4-bromo-2-(3-fluoro-benzylidene-hydrazinocarbonyl)-phenyl]-benzamide]", "IC50": 4.24}
{"molecule": "Cc1ccc(/C=N/NC(=O)c2cc(OCCCCF)ccc2NC(=O)c2cccc(CSCCO)c2)cc1C", "note": "[Compound 1053, N-[2-(3,4-Dimethyl-benzylidene-hydrazinocarbonyl)-4-(4-fluoro-butoxy)-phenyl]-3-(2-hydroxy-ethylsulfanylmethyl)-benzamide]", "IC50": "< 1"}
{"molecule": "CN(C)CCn1nnnc1SCc1cccc(C(=O)Nc2ccc(Cl)cc2C(=O)N/N=C/c2cccc(O)c2)c1", "note": "[Compound 470, N-[4-Chloro-2-(3-hydroxy-benzylidene-hydrazinocarbonyl)-phenyl]-3-[1-(2-dimethylamino-ethyl)-1H-tetrazol-5-ylsulfanylmethyl]-benzamide]", "IC50": 23.5}
{"molecule": "Cc1csc(NC(=O)c2cccc(CN(CC(C)O)CC(C)O)c2)c1C(=O)N/N=C/c1ccc(Cl)c(C(F)(F)F)c1", "note": "(stereo not drawn) [Compound 851, 3-{[Bis-(2-hydroxy-propyl)-amino]-methyl}-N-[3-(4-chloro-3-trifluoromethyl-benzylidene-hydrazinocarbonyl)-4-methyl-thiophen-2-yl]-benzamide; hydrochloride]", "IC50": 1.36}
{"molecule": "CCN(CC)CCN(C)Cc1cccc(C(=O)Nc2ccc(I)cc2C(=O)N/N=C/c2ccc(F)cc2)c1", "note": "[Compound 473, 3-{[(2-Diethylamino-ethyl)-methyl-amino]-methyl}-N-[2-(4-fluoro-benzylidene-hydrazinocarbonyl)-4-iodo-phenyl]-benzamide]", "IC50": "< 3"}
{"molecule": "O=C(Nc1sccc1C(=O)N/N=C/c1cccc(F)c1)c1cccc(CSCCCO)c1", "note": "[Compound 661, N-[3-(3-Fluoro-benzylidene-hydrazinocarbonyl)-thiophen-2-yl]-3-(3-hydroxy-propylsulfanylmethyl)-benzamide]", "IC50": "< 10"}
{"molecule": "CCN(CC)CCOc1ccc(NC(=O)c2ccc(OC)c(OC)c2)c(C(=O)N/N=C/c2ccc(F)cc2)c1", "note": "[Compound 140, N-[4-(2-Diethylamino-ethoxy)-2-(4-fluoro-benzylidene-hydrazinocarbonyl)-phenyl]-3,4-dimethoxy-benzamide]", "IC50": 74.2}
{"molecule": "Cc1ccc(/C=N/NC(=O)c2cc(N3CCCCC3)ccc2NC(=O)c2cccc(CNCCN(CCO)CCO)c2)cc1C", "note": "[Compound 913, 3-({2-[Bis-(2-hydroxy-ethyl)-amino]-ethylamino}-methyl)-N-[2-(3,4-dimethyl-benzylidene-hydrazinocarbonyl)-4-piperidin-1-yl-phenyl]-benzamide]", "IC50": 1.65}
{"molecule": "O=C(Nc1ccc(N2CCCC(C(=O)O)C2)cc1C(=O)N/N=C/c1ccc(Cl)c(C(F)(F)F)c1)c1cccc(CSCCO)c1", "note": "(stereo not drawn) [Compound 925, 1-{3-(4-Chloro-3-trifluoromethyl-benzylidene-hydrazinocarbonyl)-4-[3-(2-hydroxy-ethylsulfanylmethyl)-benzoylamino]-phenyl}-piperidine-3-carboxylic acid]", "IC50": 25.5}
{"molecule": "Cc1cccc(/C=N/NC(=O)c2cscc2NC(=O)c2cccc(CN(CC(C)O)CC(C)O)c2)c1", "note": "(stereo not drawn) [Compound 975, 3-{[Bis-(2-hydroxy-propyl)-amino]-methyl}-N-[4-(3-methyl-benzylidene-hydrazinocarbonyl)-thiophen-3-yl]-benzamide]", "IC50": 17.4}
{"molecule": "Cc1ccc(/C=N/NC(=O)c2cc(OCCN3CCCCC3)ccc2NC(=O)c2cccc(CSCCO)c2)cc1", "note": "[Compound 1042, 3-(2-Hydroxy-ethylsulfanylmethyl)-N-[2-(4-methyl-benzylidene-hydrazinocarbonyl)-4-(2-piperidin-1-yl-ethoxy)-phenyl]-benzamide]", "IC50": 14.7}
{"molecule": "O=C(Nc1ccc(N2CCCCC2)cc1C(=O)N/N=C/c1ccc(Cl)c(C(F)(F)F)c1)c1cccc(CN2CCN(CCO)CC2)c1", "note": "[Compound 868, N-[2-(4-Chloro-3-trifluoromethyl-benzylidene-hydrazinocarbonyl)-4-piperidin-1-yl-phenyl]-3-[4-(2-hydroxy-ethyl)-piperazin-1-ylmethyl]-benzamide]", "IC50": "< 0.3"}
{"molecule": "COc1ccc(/C=N/NC(=O)c2cc(N3CCCCC3)ccc2NC(=O)c2cccc(CSCCO)c2)cc1", "note": "[Compound 885, 3-(2-Hydroxy-ethylsulfanylmethyl)-N-[2-(4-methoxy-benzylidene-hydrazinocarbonyl)-4-piperidin-1-yl-phenyl]-benzamide]", "IC50": 1.24}
{"molecule": "CCN(CC)CCN(Cc1cccc(C(=O)Nc2sc3c(c2C(=O)N/N=C/c2ccc(C)c(C)c2)CCCC3)c1)C(C)=O", "note": "[Compound 652, 3-{[Acetyl-(2-diethylamino-ethyl)-amino]-methyl}-N-[3-(3,4-dimethyl-benzylidene-hydrazinocarbonyl)-4,5,6,7-tetrahydro-benzo[b]thiophen-2-yl]-benzamide]", "IC50": 0.72}
{"molecule": "CCN(CCO)Cc1ccc(C(=O)Nc2ccc(Cl)cc2C(=O)N/N=C/c2ccc(F)cc2)cc1", "note": "[Compound 433, N-[4-Chloro-2-(4-fluoro-benzylidene-hydrazinocarbonyl)-phenyl]-4-{[ethyl-(2-hydroxy-ethyl)-amino]-methyl}-benzamide]", "IC50": 14.3}
{"molecule": "O=C(Nc1ccc(Br)cc1C(=O)N/N=C/c1cccc(F)c1)c1cccnc1", "note": "[Compound 172, N-[4-Bromo-2-(3-fluoro-benzylidene-hydrazinocarbonyl)-phenyl]-nicotinamide]", "IC50": 2.74}
{"molecule": "COc1ccc(C(=O)Nc2ccccc2C(=O)N/N=C/c2ccc(Cl)c(C(F)(F)F)c2)cc1", "note": "[Compound 90, N-[2-(4-Chloro-3-trifluoromethyl-benzylidene-hydrazinocarbonyl)-phenyl]-4-methoxy-benzamide]", "IC50": 3.42}
{"molecule": "COc1ccc(C(=O)Nc2ccc(C)cc2C(=O)N/N=C/c2ccc(C)cc2)cc1OC", "note": "[Compound 149, 3,4-Dimethoxy-N-[4-methyl-2-(4-methyl-benzylidene-hydrazinocarbonyl)-phenyl]-benzamide]", "IC50": 5.51}
{"molecule": "COc1ccc(/C=N/NC(=O)c2cc(N3CCCCC3)ccc2NC(=O)c2cccc(CN3CCC(O)CC3)c2)cc1", "note": "[Compound 875, 3-(4-Hydroxy-piperidin-1-ylmethyl)-N-[2-(4-methoxy-benzylidene-hydrazinocarbonyl)-4-piperidin-1-yl-phenyl]-benzamide]", "IC50": 5.2}
{"molecule": "CC(O)CN(Cc1cccc(C(=O)Nc2ccc(F)cc2C(=O)N/N=C/c2ccc(Cl)c(C(F)(F)F)c2)c1)CC(C)O", "note": "(stereo not drawn) [Compound 853, 3-{[Bis-(2-hydroxy-propyl)-amino]-methyl}-N-[2-(4-chloro-3-trifluoromethyl-benzylidene-hydrazinocarbonyl)-4-fluoro-phenyl]-benzamide; hydrochloride]", "IC50": 2.14}
{"molecule": "Cc1ccc(/C=N/NC(=O)c2cc(Br)ccc2NC(=O)c2ccc(CN(CC(C)O)CC(C)O)cc2)cc1C", "note": "(stereo not drawn) [Compound 303, 4-{[Bis-(2-hydroxy-propyl)-amino]-methyl}-N-[4-bromo-2-(3,4-dimethyl-benzylidene-hydrazinocarbonyl)-phenyl]-benzamide]", "IC50": 1.13}
{"molecule": "O=C(Nc1sc2c(c1C(=O)N/N=C/c1ccc(Cl)c(C(F)(F)F)c1)CCCC2)c1cccc(CN2CCN(CCO)CC2)c1", "note": "[Compound 625, N-[3-(4-Chloro-3-trifluoromethyl-benzylidene-hydrazinocarbonyl)-4,5,6,7-tetrahydro-benzo[b]thiophen-2-yl]-3-[4-(2-hydroxy-ethyl)-piperazin-1-ylmethyl]-benzamide]", "IC50": "< 3"}
{"molecule": "Cc1csc(NC(=O)c2cccc(CN3CCC(CO)CC3)c2)c1C(=O)N/N=C/c1ccc(F)cc1", "note": "[Compound 601, N-[3-(4-Fluoro-benzylidene-hydrazinocarbonyl)-4-methyl-thiophen-2-yl]-3-(4-hydroxymethyl-piperidin-1-ylmethyl)-benzamide]", "IC50": "< 3"}
{"molecule": "COc1ccc(C(=O)Nc2ccc(Br)cc2C(=O)N/N=C/c2cccc(Cl)c2)cc1OC", "note": "[Compound 59, N-[4-Bromo-2-(3-chloro-benzylidene-hydrazinocarbonyl)-phenyl]-3,4-dimethoxy-benzamide]", "IC50": 1.22}
{"biological_target": "T1, rat NaPi-2b", "assay": "Sodium-dependent phosphate uptake of Xenopus oocytes which expressed NaPi-2b (32P)", "format": "cell-based", "settings": "phosphate uptake, oocytes expressing rat NaPi-2b; 300 μM, determined from inhibition curve", "procedure,_shortened": "as §1", "units": {"inhibition at 300 µM": "%"}}
{"molecule": "COc1ccc(/C=N/NC(=O)c2cc(Br)ccc2NC(=O)c2ccc(CNC(CN3CCOCC3)c3ccccc3)cc2)cc1", "note": "(stereo not drawn) [Compound 748, N-[4-Bromo-2-(4-methoxy-benzylidene-hydrazinocarbonyl)-phenyl]-4-[(2-morpholin-4-yl-1-phenyl-ethylamino)-methyl]-benzamide]", "inhibition at 300 µM": 56.5}
{"molecule": "Cc1csc(C(=O)N/N=C/c2cccc(F)c2)c1NC(=O)c1cccc(CN2CCN(CCO)CC2)c1", "note": "[Compound 535, N-[2-(3-Fluoro-benzylidene-hydrazinocarbonyl)-4-methyl-thiophen-3-yl]-3-[4-(2-hydroxy-ethyl)-piperazin-1-ylmethyl]-benzamide]", "inhibition at 300 µM": 53}
{"molecule": "CCN(CC)CCN(C)Cc1cccc(C(=O)Nc2sccc2C(=O)N/N=C/c2ccc(C)cc2)c1", "note": "[Compound 665, 3-{[(2-Diethylamino-ethyl)-methyl-amino]-methyl}-N-[3-(4-methyl-benzylidene-hydrazinocarbonyl)-thiophen-2-yl]-benzamide]", "inhibition at 300 µM": 82.3}
